Measured values: patent US20090217394A1 (priority 2005, published 2009)

Columns and labels:
[1] = tested on: non-transgenic mouse born of the same mother; test: Blood glucose level after diphtheria toxin in non-transgenic littermate; type: in vivo
[2] = tested on: islets of Langerhans in the pancreas of the transgenic mouse; test: Histological analysis of transgenic mouse pancreas after diphtheria toxin; type: in vivo
SCID-Ins-TRECK-Tg mouse = test: Blood insulin level after DT in transgenic mouse; type: in vivo
Text: (§1) Moreover, the blood insulin level of an SCID-Ins-TRECK-Tg mouse was compared with that of a non-Tg mouse. When DT had not yet been administered, there had been no difference between them. […] However, the SCID-Ins-TRECK-Tg mouse was not able to secrete insulin, and thus the blood insulin level thereof was not changed (FIG. 5B) in it.

non-Tg mouse = test: Blood insulin level after DT in non-Tg mouse; type: in vivo
Text: as §1

SCID-Ins-TRECK-Tg mice [3] = test: Blood glucose level after intraperitoneal diphtheria toxin in transgenic mice; type: in vivo, mouse
mouse cells = conditions: toxin added from outside of the cells; cited from earlier work
mouse = conditions: dosage of 50 μg/kg
SCID-Ins-TRECK-Tg mice [4] = test: Decrease in blood glucose level by administration of insulin to DT-induced hyperglycemic mice; type: in vivo, mouse
[5] = target: human HB-EGF (L148S/P149T) (human) (UniProt Q99075); test: cell-based or functional assay
[6] = 7 days after 5 μg/kg diphtheria toxin, immunostaining
[7] = 5th day after administration of DT
[8] = after DT, 10 minutes after 2 g/kg oral glucose
[9] = diphtheria toxin 50 ng/kg to 50 μg/kg intraperitoneal, within two days

Sequence of UniProt Q99075 (Q99075 63-148 L148S): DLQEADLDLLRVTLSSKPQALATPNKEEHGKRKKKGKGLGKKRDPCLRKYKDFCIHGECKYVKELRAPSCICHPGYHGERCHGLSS

diphtheria toxin
changes in blood glucose levels due to administration of the toxin [1]: no changes
insulin positive cells (β cells) in islets of Langerhans [2, 6]: significantly decreased
number of α cells stained with anti-glucagon antibodies [2, 6]: increased
cells in the islets of Langerhans (HE staining) ([2]; 7 days after 40 μg/kg diphtheria toxin): damaged
blood insulin level (SCID-Ins-TRECK-Tg mouse; [7]): significantly decreased
blood insulin level after glucose load (SCID-Ins-TRECK-Tg mouse; [8]): not changed
blood insulin level (non-Tg mouse; [7]): not changed
blood insulin level after glucose load (non-Tg mouse; [8]): rapidly increased
time for which high blood glucose level was maintained (SCID-Ins-TRECK-Tg mice [3]; diphtheria toxin 50 ng/kg to 20 μg/kg intraperitoneal): ≥ 50 days
blood glucose level from four days after administration (SCID-Ins-TRECK-Tg mice [3]; diphtheria toxin 50 ng/kg to 20 μg/kg intraperitoneal, from four days after administration): ≥ 400 mg/dL
blood glucose level two days after administration (SCID-Ins-TRECK-Tg mice [3]; diphtheria toxin 50 ng/kg to 20 μg/kg intraperitoneal, two days after administration): ≥ 200 mg/dL
blood glucose level within two days after administration (SCID-Ins-TRECK-Tg mice [3]; [9]): ≥ 200 mg/dL
glucose and ketone bodies in urine (SCID-Ins-TRECK-Tg mice [3]; [9]): detection of glucose and ketone bodies in urine
duration of hyperglycemic state (SCID-Ins-TRECK-Tg mice [3]; single DT administration, 5 ng/kg to 50 μg/kg intraperitoneal): ≥ 2 months
minimum DT amount necessary for inducing hyperglycemia (SCID-Ins-TRECK-Tg mice [3]; single intraperitoneal administration): 50 ng/kg
resistance of mouse cells to diphtheria toxin relative to human cells (mouse cells): ≥ 1,000 times
abnormality after administration (mouse): no abnormality is observed

NovoRapid injection: rapid-acting insulin analogue (NovoRapid injection; NovoNordisk Pharma)
blood glucose level after insulin (SCID-Ins-TRECK-Tg mice [4]; 1 U intraperitoneal, severe hyperglycemia (blood glucose >600 mg/dl)): decreased to a normal level
blood glucose level after insulin (SCID-Ins-TRECK-Tg mice [4]; 100 mU insulin, mouse at 500 mg/dl or higher after 1 μg/kg DT (FIG. 5A)): rapidly decreased to a normal value
blood glucose level after insulin (SCID-Ins-TRECK-Tg mice [4]; 100 mU intraperitoneal, 7 days after 1 μg/kg DT, mouse with blood glucose 500 mg/dl (FIG. 5C)): normalized
blood glucose level after insulin (SCID-Ins-TRECK-Tg mice [4]; 100 mU intraperitoneal, severe hyperglycemia (blood glucose >600 mg/dl)): no changes

diphtheria toxin (from UniProt P00588 33-567)
minimum DT amount necessary for inducing hyperglycemia [5]: 50 ng/kg
